According to PubChem BioAssay (NCI):
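A five-concentration, 48-hour dose response in 96-well plates underlies each endpoint, interpolated linearly between surrounding concentrations. The concentration for full growth arrest is given as TGI.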 Where a SMILES comes first, the peptide text is derived from it.

Key:
Experiment in all cases: NCI-60 cell line screen, 48 h
[1] = tested on: MOLT-4 leukemia
[2] = tested on: IGROV1 ovarian
[3] = tested on: LOX IMVI melanoma
[4] = tested on: U251 CNS
[5] = tested on: SK-MEL-28 melanoma
[6] = tested on: HOP-92 NSCLC
[7] = tested on: UACC-62 melanoma
[8] = tested on: CAKI-1 renal
[9] = tested on: SK-OV-3 ovarian
[10] = tested on: 786-0 renal
[11] = tested on: SW-620 colon
[12] = tested on: SNB-19 CNS
[13] = tested on: HCT-15 colon
[14] = tested on: EKVX NSCLC
[15] = tested on: HS 578T breast
[16] = tested on: HL-60(TB) leukemia
[17] = tested on: RPMI-8226 leukemia
[18] = tested on: MDA-MB-435
[19] = tested on: HOP-62 NSCLC
[20] = tested on: BT-549 breast

| Compound | TGI [1] [µM] | TGI [2] [µM] | TGI [3] [µM] | TGI [4] [µM] | TGI [5] [µM] | TGI [6] [µM] | TGI [7] [µM] | TGI [8] [µM] | TGI [9] [µM] | TGI [10] [µM] | TGI [11] [µM] | TGI [12] [µM] | TGI [13] [µM] | TGI [14] [µM] | TGI [15] [µM] | TGI [16] [µM] | TGI [17] [µM] | TGI [18] [µM] | TGI [19] [µM] | TGI [20] [µM] |
| --- | --- | --- | --- | --- | --- | --- | --- | --- | --- | --- | --- | --- | --- | --- | --- | --- | --- | --- | --- | --- |
| Cc1c(C(=O)/C=C/c2c(Cl)cccc2Cl)c(=O)n(-c2ccccc2)n1C | > 100 | > 100 | 41.8 | 2.98 | > 100 | 74.6 | > 100 | > 100 | > 100 | 38.6 | 25.9 | > 100 | > 100 | > 100 |  |  |  |  |  |  |
| COC(=O)CCc1ccc2c(c1)CC1(Cc3ccccc3C1)C2 | > 100 | > 100 | > 100 | > 100 |  | > 100 | > 100 |  | > 100 | > 100 |  |  | > 100 | > 100 | > 100 | > 100 | > 100 | > 100 | > 100 |  |
| C=C(Br)C(C)(Br)CCC(Br)C(C)(C)Br (stereo unspecified) | 94.2 | 39 | 31 | 38.4 | 46.3 | 40.6 | 45.1 | > 100 | > 100 | 44.5 | 70.9 |  | > 100 |  |  | 62.3 | 58.2 |  | 34.9 |  |
| CCOC1(OCC)N=C(N)C2(C#N)C3(C(=O)N(C(C)C)N=C3C)C12C#N (stereo unspecified) | > 100 | > 100 |  | > 100 | > 100 | > 100 | > 100 | > 100 | > 100 | > 100 | > 100 | > 100 | > 100 | > 100 |  | > 100 | > 100 | > 100 | > 100 | > 100 |
| Cc1sc(Nc2ccccc2[N+](=O)[O-])c(C#N)c1C | > 100 |  |  | 62.6 | > 100 | 53 | > 100 | > 100 | > 100 | 61.7 |  | 61.9 | > 100 | > 100 |  |  | > 100 | > 100 | 76.2 | 57.9 |
| CC(=O)O[C@H]1CC[C@@]2(C)C(=C[C@H](c3ccc(O)cc3)[C@H]3[C@@H]4CC[C@H](OC(C)=O)[C@@]4(C)CC[C@@H]32)C1 | 45.3 |  | 27.1 | 48 |  | 81.5 | 23 | 53.4 | > 100 | 38.3 | 46.2 | 47.7 | 24.8 | 37.4 |  | 58 | 45.8 | 62.6 | 66.9 | 29.4 |
| CNC(=O)CNC(=O)C(NC(=O)CNC(=O)C1CCCN1C(=O)C(C)NC(=O)C(NC(C)=O)C(C)C)C(C)C (stereo unspecified) (Ac-VAPGVG-NHMe; configuration not given here) | > 100 | > 100 | > 100 | > 100 | > 100 | > 100 | > 100 | > 100 | > 100 | > 100 | > 100 | > 100 | > 100 | > 100 |  | > 100 | > 100 | > 100 | > 100 |  |
| O=C1C2=Cc3ccccc3OC2(O)Oc2ccc(O)cc21 (stereo unspecified) | > 100 | > 100 | > 100 | > 100 | > 100 | > 100 | > 100 | > 100 | > 100 | > 100 | > 100 |  | > 100 | > 100 |  |  | > 100 | > 100 | > 100 | > 100 |
| CN(C)C1(N(C)C)Oc2c(c(=O)n(C)c(=O)n2C)C(c2ccccc2Br)C1(F)F (stereo unspecified) | > 100 |  | > 100 | > 100 | > 100 | > 100 | > 100 | > 100 | > 100 | > 100 | > 100 | > 100 | > 100 | > 100 |  |  | > 100 | > 100 | > 100 | > 100 |
| CSc1nc2c(c(=O)[nH]1)N=C(c1ccc(Cl)cc1)CC(c1ccccc1)N2 (stereo unspecified) | 61.8 | 29.5 | 44.2 | 39.3 | 32.4 | 38.7 |  | 34.2 |  | 30 | 39.1 | 29.9 |  | 40.9 |  | 39.6 | 40.1 | 38.3 | 31.7 | 45.4 |
| C(=NCCCN1CCN(CCCN=Cc2cccc3ccccc23)CC1)c1cccc2ccccc12 | > 100 | > 100 | > 100 | > 100 | > 100 |  | > 100 | > 100 | > 100 | > 100 | > 100 | > 100 | > 100 | > 100 | > 100 |  | > 100 | 96.8 | > 100 | 90.8 |
| COCCN(CCOC)C(=O)COc1c2cc(C(C)(C)C)cc1Cc1cc(C(C)(C)C)cc(c1OCC(=O)N(CCOC)CCOC)Cc1cc(C(C)(C)C)cc(c1OCC(=O)N(CCOC)CCOC)Cc1cc(C(C)(C)C)cc(c1OCC(=O)N(CCOC)CCOC)Cc1cc(C(C)(C)C)cc(c1OCC(=O)N(CCOC)CCOC)C2 |  | 10.1 | 8.92 | 2.05 | 18.6 |  | 3.53 |  | 14.6 | 12.2 | 11.9 | 16.4 | 11.8 | 2.8 |  |  |  | 10.7 | 5.04 |  |
| NC(=NCCN1CCCCCCC1)NO | > 100 | 92.6 | > 100 |  | > 100 | > 100 | > 100 | > 100 | > 100 | > 100 | > 100 | > 100 | > 100 | > 100 | > 100 | > 100 | > 100 | > 100 | > 100 |  |
